Laboratory results published in ChEMBL document CHEMBL3232874, “The applications of binuclear metallohydrolases in medicine: recent advances in the design and development of novel drug leads for purple acid phosphatases, metallo-β-lactamases and arginases” (Eur J Med Chem, 2014).
pIC50, pKi: −log10 of the molar value. Square brackets hold non-standard residues; d marks the D form. Peptide text beside a SMILES is read from it. * marks the point of attachment. F2Pmp = N[C@@H](Cc1ccc(C(F)(F)P(=O)(O)O)cc1)C(=O)O; Phe(4-COOH) = N[C@@H](Cc1ccc(C(=O)O)cc1)C(=O)O; Fmoc = O=C(OCC1c2ccccc2-c2ccccc21)*

Tests used:
[1] = target: T1, Fe(3+)-Zn(2+) purple acid phosphatase (Phaseolus vulgaris, UniProt P80366); assay: Inhibition of red kidney beans purple acid phosphatase
T1 sequence (P80366 whole entry): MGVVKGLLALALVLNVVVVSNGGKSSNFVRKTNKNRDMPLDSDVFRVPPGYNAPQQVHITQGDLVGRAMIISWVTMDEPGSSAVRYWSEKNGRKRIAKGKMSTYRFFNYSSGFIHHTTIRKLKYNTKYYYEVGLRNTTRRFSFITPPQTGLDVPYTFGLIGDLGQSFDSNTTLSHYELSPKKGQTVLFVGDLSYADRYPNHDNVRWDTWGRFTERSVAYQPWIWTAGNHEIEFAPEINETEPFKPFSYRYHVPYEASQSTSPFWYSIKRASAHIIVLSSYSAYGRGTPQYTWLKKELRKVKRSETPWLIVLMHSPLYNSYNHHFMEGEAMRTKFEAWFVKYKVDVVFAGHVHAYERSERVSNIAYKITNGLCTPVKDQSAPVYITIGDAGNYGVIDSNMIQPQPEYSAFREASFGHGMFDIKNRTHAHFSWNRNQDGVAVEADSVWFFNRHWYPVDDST

[2] = Inhibition of metallo-beta-lactamase BcII (unknown origin)
[3] = Inhibition of metallo-beta-lactamase L1 (unknown origin)
[4] = Inhibition of pig purple acid phosphatase at pH 4.9; parameters: species or system Sus scrofa
[5] = Inhibition of pig purple acid phosphatase at pH 3.3; parameters: species or system Sus scrofa
[6] = Inhibition of metallo-beta-lactamase IMP-1 (unknown origin)
Beta-lactamase L1 = Beta-lactamase L1 (Stenotrophomonas maltophilia, UniProt P52700); assay: Inhibition of Stenotrophomonas maltophilia metallo-beta-lactamase L1 after 5 mins
Arginase-1 = target: T2, Arginase-1 (Rattus norvegicus, UniProt P07824); assay: Inhibition of rat liver arginase
T2 sequence (P07824 whole entry): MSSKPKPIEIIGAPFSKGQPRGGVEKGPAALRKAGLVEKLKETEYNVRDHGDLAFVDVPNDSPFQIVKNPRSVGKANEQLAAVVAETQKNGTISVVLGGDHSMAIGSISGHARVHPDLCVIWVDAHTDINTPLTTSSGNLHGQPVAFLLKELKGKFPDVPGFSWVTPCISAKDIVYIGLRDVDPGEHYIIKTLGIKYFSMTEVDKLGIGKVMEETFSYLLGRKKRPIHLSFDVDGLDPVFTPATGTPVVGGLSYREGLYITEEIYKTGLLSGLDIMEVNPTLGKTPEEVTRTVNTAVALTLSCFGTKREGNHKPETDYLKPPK

[7] = Inhibition of mouse macrophage arginase
[8] = Inhibition of Plasmodium berghei arginase
[9] = Inhibition of human arginase
[10] = Inhibition of human purple acid phosphatase; settings: for pIC50: read-out: IC50
[11] = Inhibition of Bacillus cereus metallo-beta-lactamase BcII
[12] = Inhibition of metallo-beta-lactamase CphA (unknown origin)
[13] = Inhibition of metallo-beta-lactamase VIM2 (unknown origin)
[14] = Inhibition of human recombinant purple acid phosphatase at pH 4.9
[15] = Inhibition of human recombinant purple acid phosphatase at pH 3.3
[16] = target: Metallo-beta-lactamase type 2 (Bacteroides fragilis, UniProt P25910); assay: Competitive inhibition of Bacteroides fragilis metallo-beta-lactamase CcrA
[17] = Inhibition of Bacillus cereus 5/B/6 metallo-beta-lactamase […] incubated for 1 min prior to substrate addition by spectrophotometry
[18] = Inhibition of metallo-beta-lactamase IMP-1 (unknown origin) using nitrocefin as substrate incubated for 15 mins prior to substrate addition
[19] = Competitive inhibition of Bacillus cereus 569/H metallo-beta-lactamase BcII by Eadie-Hofstee plot analysis
[20] = Inhibition of arginase (unknown origin); parameters: species or system Homo sapiens
[21] = Inhibition of metallo-beta-lactamase CcrA (unknown origin)

Sequence of Beta-lactamase L1 (P52700 whole entry): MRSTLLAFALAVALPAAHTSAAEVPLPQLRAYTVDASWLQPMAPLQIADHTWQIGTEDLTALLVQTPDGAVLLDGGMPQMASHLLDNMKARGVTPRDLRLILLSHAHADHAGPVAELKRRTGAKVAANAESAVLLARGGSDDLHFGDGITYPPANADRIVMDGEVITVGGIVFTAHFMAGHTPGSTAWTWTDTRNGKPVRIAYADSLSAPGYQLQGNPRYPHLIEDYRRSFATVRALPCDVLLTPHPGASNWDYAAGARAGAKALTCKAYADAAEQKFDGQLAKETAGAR
Sequence of Metallo-beta-lactamase type 2 (P25910 whole entry): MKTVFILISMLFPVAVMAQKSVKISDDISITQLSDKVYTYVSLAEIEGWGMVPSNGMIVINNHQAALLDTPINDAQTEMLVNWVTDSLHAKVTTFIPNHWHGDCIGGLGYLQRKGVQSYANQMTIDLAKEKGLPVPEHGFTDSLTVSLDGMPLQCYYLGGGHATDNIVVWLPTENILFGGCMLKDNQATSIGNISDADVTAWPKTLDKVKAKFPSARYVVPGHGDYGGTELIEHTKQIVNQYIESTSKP

O=P(O)(O)c1ccccc1S
pIC50 [1]: 3.46

O=C(O)c1cccc(C(=O)O)n1 [DIPICOLINIC ACID]
pIC50 [2]: 4.66 | pIC50 [3]: 5.11

CC(=O)Oc1cc(C[C@H](NC(=O)[C@H](CCC(=O)O)NC(=O)OCC2c3ccccc3-c3ccccc32)C(=O)N[C@@H](C)C(N)=O)ccc1OCC(=O)O
pKi [4]: 3.11 | pKi [5]: 3.38

O[C@H](CS)[C@H](O)CS
INH [6]: 0.55 µM

COC(=O)c1cc(SCC(NC(C)=O)C(=O)OC)cc2nc3c(C(=O)O)cccc3nc12 (stereo unspecified)
pIC50 (Beta-lactamase L1): 6.00

N=C(NO)NCC[C@H](N)C(=O)O [NOR-NOHA]
pIC50 (Arginase-1): 5.70 | pIC50 [7]: 4.30

N[C@@H](CCCC[N+](=O)[O-])C(=O)O
pKi [8]: 4.96 | pKi [9]: 4.22

O=C(c1ccccc1)C(C(=O)c1ccccc1)(c1cccc2ccccc12)P(=O)(O)O
pIC50 [10]: 5.85

COc1ccc(C(S)C(=O)O)cc1 (stereo unspecified)
pKi [11]: 7.05

C[C@H](NC(=O)[C@H](Cc1ccc(C(=O)O)cc1)NC(=O)[C@H](CCC(=O)O)NC(=O)OCC1c2ccccc2-c2ccccc21)C(N)=O (Fmoc-Glu-[Phe(4-COOH)]-Ala-NH2)
pKi [4]: 3.79 | pKi [5]: 4.00

C[C@H](NC(=O)[C@H](Cc1ccc(CC(=O)O)c(C(=O)O)c1)NC(=O)[C@H](CCC(=O)O)NC(=O)OCC1c2ccccc2-c2ccccc21)C(N)=O
pKi [4]: 3.55 | pKi [5]: 3.70

CCOC(=O)CCS
INH [6]: 0.25 µM

O=C(COc1ccccc1)NC(Cc1ccccc1)C(O)C(F)(F)F (stereo unspecified)
pKi [2]: 5.82 | pKi [12]: 5.82 | pKi [3]: 5.82 | pKi [13]: 5.82

O=C(COc1ccccc1)NC(Cc1ccccc1)C(=O)C(F)(F)F (stereo unspecified)
pKi [2]: 5.82 | pKi [12]: 5.82 | pKi [3]: 5.82 | pKi [13]: 5.82

OCCCS
INH [6]: 2.5 µM

C[C@H](NC(=O)[C@H](Cc1ccc(C(F)(F)P(=O)(O)O)cc1)NC(=O)[C@H](CCC(=O)O)NC(=O)OCC1c2ccccc2-c2ccccc21)C(=O)O (Fmoc-Glu-[F2Pmp]-Ala-OH)
pKi [14]: 4.20 | pKi [15]: 4.17

O=P(O)(O)CS
pIC50 [1]: 4.10

C[C@H](NC(=O)[C@H](Cc1ccc(C(C(=O)O)C(=O)O)cc1)NC(=O)[C@H](CCC(=O)O)NC(=O)OCC1c2ccccc2-c2ccccc21)C(N)=O
pKi [4]: 4.42 | pKi [5]: 5.22

O=C(O)C(S)c1ccccc1 (stereo unspecified)
pKi [11]: 7.05

c1ccc(-c2nnn[nH]2)c(-c2ccc(Cn3c4ccccc4c4ccccc43)cc2)c1
pIC50 [16]: 6.52

O=C(O)CP(=O)(O)O [FOSFONET]
pKi [1]: 3.23

CC(NC(=O)COc1ccccc1)C(=O)C(F)(F)F (stereo unspecified)
pKi [2]: 5.82 | pKi [12]: 5.82 | pKi [3]: 5.82 | pKi [13]: 5.82

O[C@H](CS)[C@@H](O)CS
INH [6]: 2.2 µM

O=S(=O)(N/N=C/c1c2ccccc2cc2ccccc12)c1ccc2ccccc2c1
pKi [17]: 7.70 | pIC50 [6]: 5.80

O=P(O)(O)CCS
pIC50 [1]: 2.52

O=C(O)CS
INH [6]: 0.23 µM

O=P(O)(O)Cc1cccc2ccccc12
pIC50 [10]: 4.52

C[C@H](NC(=O)[C@H](Cc1ccc(OCC(=O)O)c(C(=O)O)c1)NC(=O)[C@H](CCC(=O)O)NC(=O)OCC1c2ccccc2-c2ccccc21)C(N)=O
pKi [4]: 3.84 | pKi [5]: 3.95

O=P(O)(O)CCCS
pIC50 [1]: 3.80

COC(=O)c1c(O)ccc2nc3c(C(=O)O)cccc3nc12
pIC50 (Beta-lactamase L1): 6.00

O=P(O)(O)CP(=O)(O)O [MEDRONIC ACID]
pKi [1]: 3.85

O=C(O)[C@@H](Cc1ccc2c(c1)OCO2)[C@H](Cc1ccc2c(c1)OCO2)C(=O)O
pIC50 [18]: 8.05

CC(=O)N[C@H]1[C@H](O[C@H]2C[C@@H](C(=O)NCCS(=O)(=O)O)N[C@@H]2CO)O[C@H](CO)[C@@H](OS(=O)(=O)O)[C@@H]1O [BULGECIN A]
pIC50 [19]: 3.64

NNC(N)=S [THIOSEMICARBAZIDE]
pKi [20]: 4.00

O=P(O)(O)C(Cc1ccc(-c2ccccc2)cc1)c1cccc2ccccc12 (stereo unspecified)
pIC50 [10]: 5.20

C[C@H](NC(=O)[C@H](Cc1ccc(C(F)(C(=O)O)C(=O)O)cc1)NC(=O)[C@H](CCC(=O)O)NC(=O)OCC1c2ccccc2-c2ccccc21)C(N)=O
pKi [4]: 4.31 | pKi [5]: 5.10

O=P(O)(O)C(O)c1cccc2ccccc12 (stereo unspecified)
IC50 [10]: Not Active

O=C(O)c1ccccc1S [THIOSALICYLIC ACID]
pKi [11]: 5.04

COC1OC(C)=Cc2oc3cc(O)c(O)c(C(=O)O)c3c(=O)c21 (stereo unspecified)
pKi [2]: 4.10 | pKi [21]: 5.47 | pKi [6]: 4.77

CC(NC(=O)COc1ccccc1)C(O)C(F)(F)F (stereo unspecified)
pKi [2]: 5.82 | pKi [12]: 5.82 | pKi [3]: 5.82 | pKi [13]: 5.82

O=C(O)CCS
INH [6]: 1.2 µM

CC(S)C(=O)O (stereo unspecified)
INH [6]: 0.19 µM

C[C@H](NC(=O)[C@H](Cc1ccc(OC(C(=O)O)C(=O)O)cc1)NC(=O)[C@H](CCC(=O)O)NC(=O)OCC1c2ccccc2-c2ccccc21)C(=O)O
pKi [14]: 4.59 | pKi [15]: 4.85

CCOC(=O)CS
INH [6]: 1.4 µM

O=C(O)CCP(=O)(O)O
pKi [1]: 3.80

SCc1ccccc1 [BENZENEMETHANETHIOL]
pIC50 [11]: 5.04

C[C@H](NC(=O)[C@H](Cc1ccc(OC(F)(C(=O)O)C(=O)O)cc1)NC(=O)[C@H](CCC(=O)O)NC(=O)OCC1c2ccccc2-c2ccccc21)C(=O)O
pKi [14]: 4.13 | pKi [15]: 4.44

O=C(O)C(S)c1ccc(F)cc1 (stereo unspecified)
pKi [11]: 7.05

OCCS
INH [6]: 12 µM
